In US5130327A, “Indole derivatives” (Consejo Superior de Investigaciones Cientificas, priority 1989, dated 1992):

Columns and labels:
[1] = Secondary effects on the cardiovascular system; conditions: in vivo
Experimental: (§1) The secondary effects were studied mainly on the cardiovascular system, and the effects on the arterial pressure, heart rate and rhythm, P-R interval and isolated organ (rabbit aortic rings and isolated atria), were evaluated both after acute and chronic treatments. In the same way, the "cheese effect" was studied by means of the tyramine potentiation.

[2] = system: reuptake of noradrenaline; experiment: Reuptake of noradrenaline in vitro, crude synaptosomal preparation; format: biochemical, rat
Experimental: (§2) Influence on the reuptake of monoamines "in vitro" was also studied. The effect of the compounds on the reuptake of 5-HT noradrenaline and dopamine was studied using Wistar male rats (350±2.5 g). They were kept under controlled light and temperature conditions and fed "ad libitum" until killed. The animals were killed by decapitation and brains were frozen and stored at -20° C. prior to analysis. Brains were dissected on an ice-filled petri dish. The cortices for 5-HT and noradrenaline assay and striatum (including caudate nucleus, putamen and globus pallidus) for dopamine assay were immediately weighed and homogenized. The standard incubation medium contained: 1.7 μM ^14 C-5-HT); 0.5μM ^3 H-noradrenaline or 1 μM ^3 H-dopamine with 0.1 ml of the crude synaptosomal preparation. All drugs used in the study were dissolved in the incubation medium in a concentration range 10^-4 to 10^-8 M and were preincubated with the crude synaptosomal preparation obtained from the treated brains, for 5 min. at 37° C. or 0° C. before the addition of the labelled substrate.

[3] = Potentiation of 5-HT; format: in vivo
[4] = system: brain, duodenum and liver MAO B; experiment: In vivo inhibition of MAO B of different tissues after chronic treatment; set-up: species or system rat
Experimental: 4. "In vivo" inhibition of MAO A and B of different tissues after chronic treatment.
In order to evaluate the effect of compounds in a chronic treatment, the inhibitory activity on brain, duodenum and liver MAO A and B has been studied "in vivo". Wistar male rats were treated at two dose levels, 0.1 and 0.25 mg/kg i.p. for 15 and 21 days. Control rats received similar amounts of saline solution.

[5] = Potentiation of L-tryptophan, L-dopa and tryptamine; conditions: in vivo
Text: (§3) The action mechanism was studied in acute and chronic treatments on the interaction response with clonidine, salbutamol (Richard, J. Intern. J. Neuroscience, 9:17-19, 1979) and tetrabenazine (Pletscher, A.: An. N.Y. Aca. Sci. 80:1039-1045, 1959), and the response to the potentiation with L-dopa, L-tryptophan, tryptamine (Jalfre, M. et al., Arch. Int. Pharmacodyn, 159:194-221, 1982) and β-phenylethylamine (Ortmann, et al, Psychopharmacol. 84:22-27, 1984).

[6] = Interaction with clonidine-induced hypoactivity; format: in vivo
Text: as §3

[7] = system: reuptake of dopamine; experiment: Reuptake of dopamine in vitro, crude synaptosomal preparation; format: biochemical, rat
Experimental: as §2, with “The standard incubation medium contained: 1.7 μM ^14 C-5-HT); 0.5μM ^3 H-noradrenaline or 1 μM ^3 H-dopamine with 0.1 ml of the crude synaptosomal preparation.” left out

[8] = "Cheese effect" by tyramine potentiation; conditions: in vivo
Experimental: as §1

[9] = Interaction with salbutamol-induced hypoactivity; format: in vivo
Text: as §3

[10] = Antagonism of tetrabenazine effects (ptosis and catalepsy); format: in vivo; conditions: ptosis and catalepsy at 60 and 120 minutes after administration; read-out: ED50, antagonism of effects induced by tetrabenazine
Text: as §3

[11] = Potentiation of β-phenylethylamine; format: in vivo
Text: as §3

[12] = system: rat cerebral MAO A; experiment: Ex vivo inhibition of rat cerebral MAO A after single dosing; format: in vivo
Experimental: 2. "Ex vivo inhibition" of rat cerebral MAO A and B after single dosing.
This gives the degree of inhibition in vivo of both forms of the enzyme and variation of this inhibition with time after treatment with a single dose. […] Animals were sacrificed by decapitation 24 h. and 7 days after treatment and brains were removed and homogenized. Enzymatic activities determined in treated animals, were compared with the activities in control animals (100%).

With `C#CCN(C)Cc1cc2cc(OC)ccc2n1C` [(l), N-methyl-N-propargyl-2-(1-methyl-5-methoxy-indolyl)methylamine] the Cardiovascular effects [1] was “hypotensive and negative chronotrope”, the “Effect on the reuptake of noradrenaline” value [2] was “no effect” and the ED50 [3] was 0.34 mg/kg. The “Activity on hepatic MAO B” value ([4]; hepatic) was “very low activity”, the “Effect on intestinal MAO B” value ([4]; intestinal) was “without any effect” and the “Potentiation of effects of L-tryptophan, L-dopa and tryptamine” value [5] was “confirm the MAO inhibitory activity”. For the same compound, the “Hypoactivity by clonidine, acute treatment” value ([6]; acute treatment) was “not modifying it”, the “Hypoactivity by clonidine, chronic treatment” value ([6]; chronic treatment (5 days)) was “antagonized” and the “Inhibition of the reuptake of dopamine” value [7] was “very weak inhibitor”. The “Potency as inhibitor of dopamine reuptake relative to amitryptiline” value [7] was “similar”, the “Potency as inhibitor of dopamine reuptake relative to imipramine” value [7] was “ten fold” and the “"Cheese effect"” value [8] was “some "cheese effect"”. The “Hypoactivity by salbutamol, acute treatment” value ([9]; acute treatment) was “not modifying it”, the “Hypoactivity by salbutamol, chronic treatment” value ([9]; chronic treatment (14 days)) was “antagonized” and the ED50 [10] was less than 6 mg/kg. The ED50 [11] was 27 mg/kg, the “Persistence of MAO A inhibitory effect” value ([12]; dose increased (5 mg/kg)) was “observed even after 7 days” and the “Onset of MAO A inhibitory effect” value ([12]; single dose (1 mg/kg)) was “reached soon after the administration of a single dose”.
